# Data as given in PubChem BioAssay AID743319 (Broad Institute, 2014).
# Calls of active or inactive are those of the source.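 The calls were made as follows: active = fitted curve reaches 200% activation at or below the highest valid dose tested for that compound; inconclusive = flat fit between 30 and 70% activation, or unreliable fit; inactive = the rest.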
# Biological target: Endoplasmic reticulum aminopeptidase 2 (Homo sapiens) (UniProt Q6P179)
# Experiment: enhanced ERAP2 Arg-AMC hydrolysis – biochemical, fluorescence plate reader, cherry-picked samples, selectivity assay for selective ERAP1 modulator project, dose response (AID 743319)
# Settings: recombinant ERAP2, Arg-AMC cleavage fluorescence, 1 h
# Endoplasmic reticulum aminopeptidase 2 (Homo sapiens), sequence (Q6P179 whole entry, looked up): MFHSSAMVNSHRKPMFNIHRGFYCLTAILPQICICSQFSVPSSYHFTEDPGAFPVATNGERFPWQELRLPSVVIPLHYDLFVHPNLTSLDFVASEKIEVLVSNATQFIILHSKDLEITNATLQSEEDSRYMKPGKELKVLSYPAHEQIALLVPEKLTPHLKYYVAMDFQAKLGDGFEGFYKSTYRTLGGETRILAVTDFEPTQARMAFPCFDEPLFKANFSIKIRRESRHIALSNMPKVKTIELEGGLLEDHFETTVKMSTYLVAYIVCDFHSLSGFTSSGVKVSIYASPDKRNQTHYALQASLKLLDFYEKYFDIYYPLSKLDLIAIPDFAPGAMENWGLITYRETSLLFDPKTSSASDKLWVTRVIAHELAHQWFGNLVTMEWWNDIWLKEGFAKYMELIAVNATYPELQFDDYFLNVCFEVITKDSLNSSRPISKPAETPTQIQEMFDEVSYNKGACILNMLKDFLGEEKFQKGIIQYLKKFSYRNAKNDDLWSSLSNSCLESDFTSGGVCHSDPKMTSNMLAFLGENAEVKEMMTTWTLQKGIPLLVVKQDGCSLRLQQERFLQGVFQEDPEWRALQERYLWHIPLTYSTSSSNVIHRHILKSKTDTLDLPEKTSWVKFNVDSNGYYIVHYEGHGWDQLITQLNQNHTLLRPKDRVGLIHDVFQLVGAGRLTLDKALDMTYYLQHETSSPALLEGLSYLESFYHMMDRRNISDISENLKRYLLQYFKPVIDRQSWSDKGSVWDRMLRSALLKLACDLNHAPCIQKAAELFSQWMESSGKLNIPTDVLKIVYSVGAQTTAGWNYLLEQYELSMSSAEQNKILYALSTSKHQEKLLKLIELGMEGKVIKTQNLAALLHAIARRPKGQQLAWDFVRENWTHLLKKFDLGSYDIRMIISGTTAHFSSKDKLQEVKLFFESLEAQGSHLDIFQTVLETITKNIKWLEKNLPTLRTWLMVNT
row,SMILES,AC200
1,COc1ccc(-c2cc3ccc(O)cc3oc2=O)cc1OC,1880 nM
2,N#Cc1c(N)n(CCNC(=O)c2ccccc2)c2nc3ccccc3nc12,4630 nM
3,O=C(NCc1ccccn1)[C@@H]1[C@@H](CO)[C@@H]2Cn3c(ccc(/C=C/c4ccccc4)c3=O)[C@H]1N2CC1CC1,2270 nM
4,Cc1c(-c2ccccc2)c(=O)oc2cc(O)ccc12,2340 nM
5,CC(=O)N1[C@@H]2c3ccc(/C=C/c4ccccc4)c(=O)n3C[C@H]1[C@H](CO)[C@H]2C(=O)N1CCOCC1,2030 nM
6,CCc1cc(=O)oc2c(CN3CCN(C)CC3)c(O)ccc12,3170 nM
7,O=c1ccc2cc(O[C@@H]3O[C@H](CO)[C@@H](O)[C@H](O)[C@H]3O)c(O)cc2o1,687 nM
8,CN(C)Cc1c(O)ccc2cc(-c3nc4ccccc4n3C)c(=O)oc12,445 nM
9,Cc1c(C)c2ccc(O)c(CN3CCN(C)CC3)c2oc1=O,3430 nM
10,CCN1[C@@H]2c3ccc(/C=C/c4ccccc4)c(=O)n3C[C@H]1[C@H](CO)[C@H]2C(=O)N1CCOCC1,3520 nM
11,CN1CCCC1CCNc1ccc2c(=O)c3ccccc3oc2c1 (stereo not drawn),1140 nM
12,CCN(CC)Cc1c(O)ccc2cc(-c3nc4ccccc4n3C)c(=O)oc12,436 nM
13,O=c1cc(CN2CCN(Cc3ccccc3)CC2)c2ccc(O)cc2o1,3540 nM
14,CC(=O)Oc1cc2oc(=O)cc(C)c2cc1Cl,1100 nM
15,Cc1cc(=O)oc2cc(NS(=O)(=O)c3ccc(F)cc3)ccc12,2110 nM
16,O=c1ccc2cc(OC3O[C@H](CO)[C@@H](O)[C@H](O)[C@H]3O)c(O)cc2o1 (stereo partly drawn),857 nM
17,CCc1c(C)c2cc(Cl)c(O)c(CN(CC)CC)c2oc1=O,1170 nM
18,Cc1ccc(-c2cc(C(=O)N3CCCC3)c3ccccc3n2)s1,> 11000 nM (inactive)

row,SMILES,AC200
1,CCNC(=O)[C@H]1[C@H](CO)[C@H]2Cn3c(ccc(/C=C/c4ccccc4)c3=O)[C@@H]1N2C(=O)C1CCCC1,1830 nM
2,CC(=O)N1[C@@H]2Cn3c(ccc(/C=C/c4ccccc4)c3=O)[C@H]1[C@@H](C(=O)NCC1CC1)[C@@H]2CO,2500 nM
3,Cc1cc(=O)oc2c(CN3CCN(CCO)CC3)c(O)ccc12,3010 nM
4,COC(=O)[C@@H]1[C@@H](CO)[C@@H]2Cn3c(ccc(/C=C/c4ccccc4)c3=O)[C@H]1N2C(=O)C1CCC1,2170 nM
5,Cc1c(O)ccc2c(CN3CCN(Cc4ccccc4)CC3)cc(=O)oc12,5190 nM
6,CN1[C@@H]2Cn3c(ccc(/C=C/c4ccccc4)c3=O)[C@H]1[C@@H](C(=O)NC1CCCC1)[C@@H]2CO,1900 nM
7,CC(=O)N1[C@@H]2c3ccc(/C=C/c4ccccc4)c(=O)n3C[C@H]1[C@H](CO)[C@H]2C(=O)N(C)C,1570 nM
8,O=c1oc2c(CN3CCN(CCO)CC3)c(O)ccc2cc1-c1ccccn1,606 nM
9,Cc1ccc(S(=O)(=O)c2cc3ccc(O)cc3oc2=O)cc1C,721 nM
10,COc1cccc(CN(C)Cc2cc(=O)oc3cc(O)c(Cl)cc23)c1,1620 nM
11,CCN(CC)Cc1c(O)c(Cl)cc2c(C)cc(=O)oc12,1240 nM
12,CCCCc1cc(=O)oc2cc(O)ccc12,3980 nM
13,O=C(NCC1CC1)[C@H]1[C@H](CO)[C@H]2Cn3c(ccc(/C=C/c4ccccc4)c3=O)[C@@H]1N2C(=O)C1CC1,1770 nM
14,Cc1c(O)ccc2cc(S(=O)(=O)c3ccccc3)c(=O)oc12,860 nM
15,CCCN1[C@@H]2c3ccc(/C=C/c4ccccc4)c(=O)n3C[C@H]1[C@H](CO)[C@H]2C(=O)NCc1ccccn1,2190 nM
16,COc1ccc(C2=NN(c3ccc(C(=O)O)cc3)C(c3ccc(OC)c(OC)c3)C2)cc1 (stereo not drawn),1580 nM
17,COc1ccc(CNCc2c(O)c(Cl)cc3c(C)c(C)c(=O)oc23)c(OC)c1,1030 nM

# Same assay, conditions: recombinant ERAP2, Arg-AMC cleavage fluorescence, 1 h; at 5 µM (top of the series)
row,SMILES,activation
1,CCCN(C)C[C@@H]1OCCCC[C@@H](C)Oc2ccc(NS(=O)(=O)c3ccc(C)cc3)cc2C(=O)N([C@@H](C)CO)C[C@@H]1C,6.28% (inactive)

# Same assay, conditions: recombinant ERAP2, Arg-AMC cleavage fluorescence, 1 h; at 5.6 µM (top of the series)
row,SMILES,activation
1,C[C@@H]1CCCCO[C@@H](CN(C)Cc2ccccc2)[C@@H](C)CN([C@H](C)CO)C(=O)c2cc(NS(=O)(=O)c3cccs3)ccc2O1,12.1% (inactive)
2,COc1ccc(S(=O)(=O)N(C)C[C@@H]2Oc3ncccc3C(=O)N([C@H](C)CO)C[C@@H]2C)cc1,11.3% (inactive)

# Same assay, conditions: recombinant ERAP2, Arg-AMC cleavage fluorescence, 1 h; at 10 µM (top of the series)
row,SMILES,activation
1,Cc1noc(C)c1S(=O)(=O)N(C)C[C@@H]1OCCCC[C@@H](C)Oc2ccc(NS(=O)(=O)c3cccs3)cc2C(=O)N([C@@H](C)CO)C[C@@H]1C,21.7% (inactive)

# Same assay, conditions: recombinant ERAP2, Arg-AMC cleavage fluorescence, 1 h; at 11 µM (top of the series)
row,SMILES,activation
1,C[C@H]1CN([C@@H](C)CO)C(=O)c2cccc(NC(=O)Nc3ccc(F)cc3)c2O[C@@H]1CN(C)C(=O)Nc1ccc2c(c1)OCO2,18.2% (inactive)
2,C[C@@H]1CCCCO[C@@H](CN(C)C)[C@@H](C)CN([C@@H](C)CO)C(=O)c2cc(NS(=O)(=O)c3ccc(F)cc3)ccc2O1,5.3% (inactive)
3,C[C@@H]1CCCCO[C@H](CN(C)Cc2ccccc2)[C@H](C)CN([C@H](C)CO)C(=O)c2cc(NS(=O)(=O)c3ccccc3)ccc2O1,22.4% (inactive)
4,Cc1ccccc1-c1ccc2c(c1)O[C@@H](CN(C)Cc1ccc(C(=O)O)cc1)[C@@H](C)CN([C@H](C)CO)S2(=O)=O,8.67% (inactive)
5,C[C@@H]1CCCCO[C@@H](CN(C)Cc2ccc(C(=O)O)cc2)[C@@H](C)CN([C@H](C)CO)C(=O)c2cc(NC(=O)Nc3cccc4ccccc34)ccc2O1,5.34% (inactive)
6,CCn1cc(CN2CCCC(C(=O)Nc3ccc(-c4nc5ccccc5[nH]4)cc3)C2)c(C)n1 (stereo not drawn),4.78% (inactive)
7,CO[C@@H]1CN(C)C(=O)c2ccc(NC(=O)Nc3cccc(Cl)c3)cc2OC[C@@H](C)NC[C@H]1C,3.9% (inactive)
8,C[C@@H]1CCCCO[C@H](CN(C)Cc2ccc(C(=O)O)cc2)[C@@H](C)CN([C@H](C)CO)C(=O)c2cc(NC(=O)Nc3ccc(C(F)(F)F)cc3)ccc2O1,2.62% (inactive)
9,Cc1ccc(S(=O)(=O)Nc2ccc3c(c2)C(=O)N([C@@H](C)CO)C[C@H](C)[C@H](CN(C)C)OCCCC[C@@H](C)O3)cc1,14.1% (inactive)
10,COc1ccc(NC(=O)Nc2cccc3c2O[C@H](CN(C)Cc2ccc(C(=O)O)cc2)[C@H](C)CN([C@H](C)CO)C3=O)cc1,15.1% (inactive)
11,COc1ccc(S(=O)(=O)Nc2ccc3c(c2)C(=O)N([C@@H](C)CO)C[C@H](C)[C@H](CN(C)C)OCCCC[C@@H](C)O3)cc1,5.02% (inactive)
12,C[C@@H]1CCCCO[C@@H](CN(C)Cc2ccc(C(=O)O)cc2)[C@H](C)CN([C@@H](C)CO)C(=O)c2cc(NS(=O)(=O)c3ccc(Cl)cc3)ccc2O1,24.2% (inactive)
13,Cc1noc(C)c1S(=O)(=O)Nc1ccc2c(c1)C(=O)N([C@H](C)CO)C[C@@H](C)[C@@H](CN(C)CC1CCCCC1)OCCCC[C@@H](C)O2,1.44% (inactive)
14,C[C@@H]1CCCCO[C@H](CN(C)C)[C@H](C)CN([C@H](C)CO)C(=O)c2cc(NS(=O)(=O)c3ccc(Cl)cc3)ccc2O1,16.7% (inactive)
15,CCC(=O)N(C)C[C@H]1Oc2ncc(C#Cc3ccncc3)cc2C(=O)N([C@H](C)CO)C[C@H]1C,-5.99% (inactive)
16,C[C@@H]1CCCCO[C@@H](CN(C)CC2CC2)[C@@H](C)CN([C@H](C)CO)C(=O)c2cc(NS(=O)(=O)c3cccs3)ccc2O1,14.7% (inactive)
17,C[C@H](CO)N1C[C@H](C)[C@@H](CN(C)CC2CC2)Oc2c(NC(=O)Nc3ccc(C(F)(F)F)cc3)cccc2C1=O,-20.2% (inactive)

row,SMILES,activation
1,COc1ccc(CN(C)C[C@@H]2OCCCC[C@@H](C)Oc3ccc(NS(=O)(=O)c4cccs4)cc3C(=O)N([C@@H](C)CO)C[C@H]2C)cc1,-1.25% (inactive)
2,COc1ccc2c3c([nH]c2c1)[C@H](CO)N(Cc1cc(F)ccc1F)CC31CN(C)C1,11.2% (inactive)
3,CNC[C@H]1OCCCC[C@@H](C)Oc2ccc(NS(=O)(=O)c3ccc(C)cc3)cc2C(=O)N([C@@H](C)CO)C[C@H]1C,1.54% (inactive)
4,COC(=O)[C@H]1[C@H](CO)[C@H]2Cn3c(ccc(-c4ccncc4)c3=O)[C@H]2N1Cc1ccccc1F,15.2% (inactive)
5,COc1ccc(NC(=O)Nc2ccc3c(c2)C(=O)N([C@H](C)CO)C[C@@H](C)[C@H](CN(C)Cc2ccc(C(=O)O)cc2)OCCCC[C@@H](C)O3)cc1,12.3% (inactive)
6,O=C(C[C@@H]1CC[C@@H]2[C@H](COC[C@H](O)CN2C(=O)Nc2cccc(Cl)c2)O1)N1CCCCC1,2.69% (inactive)
7,COc1cccc(S(=O)(=O)N(C)C[C@@H]2Oc3ncccc3C(=O)N([C@H](C)CO)C[C@@H]2C)c1,4.98% (inactive)
8,C[C@@H]1CCCCO[C@@H](CN(C)CC2CCCCC2)[C@H](C)CN([C@@H](C)CO)C(=O)c2cc(NC(=O)Nc3ccccc3)ccc2O1,12.1% (inactive)
9,CCCNC(=O)C[C@@H]1CC[C@@H]2[C@H](COC[C@H](O)CN2C(=O)Nc2cccc(Cl)c2)O1,22.2% (inactive)
10,C[C@@H]1CN([C@H](C)CO)C(=O)c2cccc(NC(=O)Nc3ccccc3)c2O[C@@H]1CN(C)Cc1ccc(C(=O)O)cc1,23.3% (inactive)
11,C[C@@H]1CCCCO[C@@H](CN(C)S(C)(=O)=O)[C@@H](C)CN([C@@H](C)CO)C(=O)c2cc(NS(=O)(=O)c3ccc(Cl)cc3)ccc2O1,9.01% (inactive)
12,O=C(C[C@H]1CC[C@H]2[C@@H](COC[C@@H](O)CN2C(=O)Nc2cccc(Cl)c2)O1)N1CCCCC1,8.71% (inactive)
13,CCCNC(=O)C[C@H]1CC[C@@H]2[C@H](COC[C@H](O)CN2C(=O)Nc2cccc(Cl)c2)O1,19.4% (inactive)
14,CCN(CCCl)c1cc(CN(C)C)cc(NC(=O)c2ccc(C(=O)Nc3cc(CN(C)C)cc(N(CC)CCCl)c3)cc2)c1,-8.9% (inactive)
15,C[C@H](CO)N1C[C@H](C)[C@H](CN(C)CC2CCCCC2)Oc2c(NC(=O)Nc3ccc4c(c3)OCO4)cccc2C1=O,-0.254% (inactive)
16,COc1ccc(NC(=O)Nc2ccc3c(c2)C(=O)N([C@H](C)CO)C[C@@H](C)[C@@H](CN(C)Cc2ccc(C(=O)O)cc2)OCCCC[C@@H](C)O3)cc1,2.96% (inactive)
17,COc1ccc(NC(=O)Nc2ccc3c(c2)C(=O)N([C@@H](C)CO)C[C@@H](C)[C@H](CN(C)Cc2ccc(C(=O)O)cc2)OCCCC[C@H](C)O3)cc1,37.6% (inactive)
